{"source": "patent US20220378715A1", "about": "“USE OF CANNABIDIOL PREPARATIONS IN THE TREATMENT OF ABSENCE EPILEPSY” (GW Research Limited, priority 2019, published 2022)", "assay_type_in_all_cases": "in vivo, rat", "key": {"[1]": {"test_system": "WAG/Rij rats", "experiment": "EEG recording of spike wave discharges (SWDs), established absence seizures", "conditions": "10 and 100 mg/Kg i.p. twice daily, 14 days; vs control (vehicle); ANOVA across groups; FIG. 2A", "procedure": "The effects of botanically derived purified CBD (>98%) (bCBD) and synthetic CBD (sCBD) at 10 and 100 mg/Kg, i.p. twice daily, for both drugs, was assessed in this animal model, by EEG-recordings and behavioural tests.\nWAG/Rij rats were treated with bCBD or sCBD (10 and 100 mg/Kg, i.p. twice daily, for both drugs) over a chronic test period of at least 14 days.\nDrug treatment was started at about 6 months of age (n=10 for every dose and drug group) and continued for 14 consecutive days, when experimental tests were performed (treatment was also continued during the experimental procedure phase. Age-matched control (vehicle) WAG/Rij rats (n =10) were kept under the same housing conditions over the same period of time with vehicle (1:1:18, Ethanol:kolliphor HS15:saline; i.p.).\nWAG/Rij rats (n=10) underwent 2 EEG-recording periods in 2 consecutive days (one session per day). Every recording session lasted 3 hours and was performed 1 hour after drug administration. […]\nAll animals were allowed at least 1 week of recovery and handled twice a day. […] The blinded quantification of absence seizures was based on the number and the duration of EEG Spike Wave Discharges (SWDs).\nAll statistical procedures were performed using GraphPad Prism 6.0 (GraphPad Software, Inc., La Jolla, CA, USA). EEG recordings were subdivided into 30-min epochs, and the duration and number of SWDs were evaluated separately."}, "[2]": {"test_system": "WAG/Rij rats", "experiment": "Forced swimming test (FST)", "conditions": "for immobility time: sub-chronic, vs control", "procedure": "(§1) To test the effects bCBD and sCBD on epileptic comorbidities, separate groups (n=10) of treated and vehicle WAG/Rij rats at 6 months of age were subjected to several behavioural tests (see below—cohort 2).\n(§2) All behavioural tests were performed 1-hour post-dose in the morning. All experimental groups were subjected to a single test per day. […].\nThe FST, is currently the most reliable method to rapidly screen compounds for antidepressant activity in rodents; we used an FST protocol previously standardized in our laboratories for WAG/Rij rats.\nBriefly, rats were placed individually for 6 min into a glass cylinder (height 47 cm, diameter 38 cm) filled with 38 cm of water maintained between 23° C. and 25° C. The total duration of immobility (immobility time) was recorded during the last 4 min of a 6-min testing period. The criterion for immobility and passive swimming (immobility time) was floating vertically in the water while making only those movements essential to keep the head above the surface of the water, which is directly proportional to depressive-like behaviour. At the end of the FST, rats were removed and dried with a towel before being returned to their home cage. Mean swimming velocity and total distance moved were also measured and examined for every experimental group in order to check for any obvious locomotor impairment."}, "[3]": {"test_system": "WAG/Rij rats", "experiment": "Elevated plus maze (EPM)", "conditions": "10 and 100 mg/Kg; p=0.67; FIG. 3B", "procedure": "as §1, §2\nThe EPM consists of 2 opposing open arms and 2 opposing closed arms of the same size (45 cm×10 cm) with 10 cm high walls connected by a central platform (10×10 cm) and elevated 80 cm above the floor. Rats are positioned in the central platform facing a closed arm and the number of entries into, time spent on each arm, and central platform are measured.\nThe maze was systematically cleaned (Disposable towels and 70% ethanol solution) to remove olfactory cues, after each animal was tested. The shorter the time spent in open arms and central platform the higher the anxiety is and vice versa. Mean velocity and total distance moved were also measured and examined for every experimental group."}, "[4]": {"test_system": "WAG/Rij rats", "experiment": "Passive avoidance (PA)", "procedure": "as §1, §2\nRats were tested in a step-through type passive avoidance apparatus (Ugo Basile, Italy, model 40,550), measuring 57×27×30 cm, consisting of a cage divided into two chambers (light and dark) by a sliding door.\nThe PA test was carried out over two successive days. Briefly, on day one (pre-acquisition trial or habituation), rats were introduced individually in the light compartment and allowed to freely explore the cage for 5 min. The acquisition or conditioning trial was conducted 15 min after habituation. Rats were individually introduced in the light compartment.; following a 30 s adaptation time, the sliding door between the two compartments was opened. When rats completely entered into the dark compartment, the sliding door was automatically closed and an electrical foot-shock (0.5 mA for 3 s) was delivered via the floor grid.\nThe latency to enter (s) in the dark compartment was detected and analysed. The retention or memory trial was evaluated 24 h after the acquisition trial, by recording their latency to enter (s) in the dark compartment. The latency to enter in the dark compartment was directly linked to the retention memory: the better the memory, the greater the latency."}, "[5]": {"test_system": "WAG/Rij rats", "experiment": "Novel object recognition test (nORT)", "procedure": "as §1, §2\nThe nORT was performed as previously described by Bartolini et al. with some minor modifications. Briefly, three days before nORT, rats were exposed to a habituation trial lasting 6 min.\nDuring this trial, each rat was allowed to freely explore an opaque open field Plexiglas box (70×70×30 cm). To investigate short-term memory, in the familiarization trial (T1) two identical objects (wood cubes) were located in two opposite corners of the box. Each rat was placed in the centre of the open field, facing away from the sample objects and left to explore freely the objects for a maximum of 5 min, before returning to its home cage. The familiarization trial ended when the rat completed 20 s of exploration for each object.\nExploration was considered directing the nose at a distance <2 cm to the object and/or touching it with the nose and sniffing. After a retention interval of 60 min the test phase (T2) was conducted.\nAfter this session, the rat returned to home cage. The time spent exploring the familiar (F) and the novel object (N) was recorded separately and a discrimination index (DI) was calculated (DI=N−F/N+F). To avoid olfactory cues both the objects and the box were cleaned with 70% ethanol solution after each session.\nFurthermore, to avoid place preference, the role (familiar or novel object) and the position of the two objects during T2 were randomly changed. Total distance moved (cm) was also evaluated and analysed for every experimental group in order to check for locomotor deficits."}, "[6]": {"test_system": "WAG/Rij rats", "experiment": "Three chamber test (TCT), sociability", "procedure": "as §1, §2\nThree-chambered approach (sociability) is an automated, widely used and well validated assay that compares time that the subject (rodent) spends with a novel animal versus time spent with a non-social inanimate object.\nThe three-chamber apparatus is a non-transparent white plastic box with two transparent acrylic partitions with a rectangular opening. The acrylic partitions divide the box into three chambers (left, centre, and right), illuminated at 120 lux. The animal is placed in the middle chamber with the dividers closed to allow it to explore the middle chamber for ten minutes.\nAfter this habituation period, an unfamiliar adult animal is placed inside a small wire cage in one of the side chambers. An identical wire cage with an inanimate object is placed in the opposite chamber. The dividers are then raised, allowing the test subject to move freely throughout all three chambers of the apparatus over a 10-minute test session. […]"}, "[7]": {"test_system": "WAG/Rij rats", "experiment": "Rotarod test (RT)", "conditions": "10 and 100 mg/Kg; p=0.9455; data not shown", "procedure": "The Rotarod apparatus (Ugo Basile, Varese, Italy) consists of a base platform and a rotating rod with a diameter of 6 cm and a non-slippery surface. The integrity of motor coordination is assessed on the basis of the time the animals keep their balance on the accelerating rotating rod up to a maximum of 10 min (600 s).\nBriefly, rats were pre-trained for 2 days in order to reach a stable performance. After the training, the rotation of the rod was gradually accelerated from 5 rpm to 50 rpm. After a maximum of 3 falls from the rod, the test is suspended and the time is recorded, the result is a mean of the 3 measures."}}, "data": [{"smiles": "C=C(C)[C@@H]1CCC(C)=C[C@H]1c1c(O)cc(CCCCC)cc1O", "note": "[sCBD, cannabidiol]", "values": [{"measurement": "mean number of spike wave discharges (nSWDs)", "setting": "[1]", "result": "did not significantly (F4,45=2.572; p=0.0504; n=10 per group) alter"}, {"measurement": "immobility time, overall", "setting": "[2]; 10 and 100 mg/Kg, vs control (vehicle), ANOVA across groups, FIG. 3A", "result": "significantly (F4,45=12.29; p<0.0001; n=10 per group) reduce"}, {"measurement": "immobility time", "setting": "[2]; higher dose (100 mg/Kg i.p. twice daily)", "result": "significant reduction"}, {"measurement": "immobility time", "setting": "[2]; lower dose (10 mg/Kg i.p. twice daily)", "result": "not effective"}, {"measurement": "anxiety-like behaviour", "setting": "[3]", "result": "not affected"}, {"measurement": "latency to enter in the dark compartment", "setting": "[4]; conditioning trial, 10 and 100 mg/Kg, data not shown", "result": "no significant effect"}, {"measurement": "latency to enter in the dark compartment", "setting": "[4]; retention session, higher dose (100 mg/Kg), vs control", "result": "did not significantly modify"}, {"measurement": "latency to enter in the dark compartment", "setting": "[4]; retention session, lower dose (10 mg/Kg), vs control", "result": "did not significantly modify"}, {"measurement": "discrimination index (DI)", "setting": "[5]; 100 mg/Kg, vs vehicle", "result": "significantly increased"}, {"measurement": "discrimination index (DI), overall", "setting": "[5]; 10 and 100 mg/Kg, ANOVA across groups, FIG. 3D", "result": "significantly (F4,45=6.009; p=0.0006; n=10 per group) affect"}, {"measurement": "discrimination index (DI)", "setting": "[5]; lower dose (10 mg/Kg), vs control", "result": "did not significantly"}, {"measurement": "time spent in the novel rat chamber vs the novel object chamber", "setting": "[6]; 100 mg/Kg, sub-chronic", "result": "significantly more time in the novel rat chamber"}, {"measurement": "time spent sniffing the novel rats", "setting": "[6]; higher dose (100 mg/Kg), vs control rats, p<0.0001", "result": "significantly increased"}, {"measurement": "rotarod test results (motor coordination)", "setting": "[7]", "result": "did not influence"}]}]}
